Results reported in the kinase profiling compilation of Christmann-Franck et al. (2016).

Assays:
Test in all cases: radiometric filter-binding kinase assay
MAP3K7 TAB1 (human) = MAP3K7 TAB1 (human) (UniProt Q15750+O43318)
PIM1 (human) = PIM1 (human) (UniProt P11309)
DYRK1A (human) = DYRK1A (human) (UniProt Q13627)
STK3 (human) = STK3 (human) (UniProt Q13188)
MAPK3 (human) = MAPK3 (human) (UniProt P27361)
IKBKE (human) = IKBKE (human) (UniProt Q14164)
MKNK2 (human) = MKNK2 (human) (UniProt Q9HBH9)
Chain of MKNK2 (human) (Q9HBH9 whole entry, looked up): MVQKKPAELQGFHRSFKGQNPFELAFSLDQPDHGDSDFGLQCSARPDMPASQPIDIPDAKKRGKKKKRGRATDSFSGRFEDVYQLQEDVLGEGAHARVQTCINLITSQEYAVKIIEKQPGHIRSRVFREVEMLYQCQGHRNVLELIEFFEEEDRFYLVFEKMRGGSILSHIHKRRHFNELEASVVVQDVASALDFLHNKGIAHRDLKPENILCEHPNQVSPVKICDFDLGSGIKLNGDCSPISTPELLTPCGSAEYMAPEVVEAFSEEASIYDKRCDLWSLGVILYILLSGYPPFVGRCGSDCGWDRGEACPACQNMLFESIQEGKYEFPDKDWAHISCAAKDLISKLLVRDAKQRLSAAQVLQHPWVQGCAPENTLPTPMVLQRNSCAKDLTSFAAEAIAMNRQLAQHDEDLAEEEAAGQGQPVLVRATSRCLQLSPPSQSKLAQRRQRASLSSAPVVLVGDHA

[1] = tested on: AKT1 (human), P31749 [S473D]
PIM2 (human) = PIM2 (human) (UniProt Q9P1W9)
Chain of PIM2 (human) (Q9P1W9 whole entry, looked up): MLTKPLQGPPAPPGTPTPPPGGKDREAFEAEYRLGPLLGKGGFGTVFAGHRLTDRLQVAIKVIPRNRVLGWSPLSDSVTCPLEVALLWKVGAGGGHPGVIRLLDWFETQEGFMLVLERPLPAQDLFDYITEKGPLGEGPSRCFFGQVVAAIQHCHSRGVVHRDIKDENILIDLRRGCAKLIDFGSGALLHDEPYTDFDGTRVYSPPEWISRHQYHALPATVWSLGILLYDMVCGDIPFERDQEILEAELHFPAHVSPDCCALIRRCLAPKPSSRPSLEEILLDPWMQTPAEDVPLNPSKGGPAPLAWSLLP

RPS6KA3 KD1 KD2 (human) = RPS6KA3 KD1 KD2 (human) (UniProt P51812)
PAK4 (human) = PAK4 (human) (UniProt O96013)
TBK1 (human) = TBK1 (human) (UniProt Q9UHD2)
NTRK1 (human) = NTRK1 (human) (UniProt P04629)
CSNK2A1 (human) = CSNK2A1 (human) (UniProt P68400)
MAPKAPK3 (human) = MAPKAPK3 (human) (UniProt Q16644)
EPHB3 (human) = EPHB3 (human) (UniProt P54753)
DAPK1 (human) = DAPK1 (human) (UniProt P53355)
MAPK11 (human) = MAPK11 (human) (UniProt Q15759)
Chain of MAPK11 (human) (Q15759 whole entry, looked up): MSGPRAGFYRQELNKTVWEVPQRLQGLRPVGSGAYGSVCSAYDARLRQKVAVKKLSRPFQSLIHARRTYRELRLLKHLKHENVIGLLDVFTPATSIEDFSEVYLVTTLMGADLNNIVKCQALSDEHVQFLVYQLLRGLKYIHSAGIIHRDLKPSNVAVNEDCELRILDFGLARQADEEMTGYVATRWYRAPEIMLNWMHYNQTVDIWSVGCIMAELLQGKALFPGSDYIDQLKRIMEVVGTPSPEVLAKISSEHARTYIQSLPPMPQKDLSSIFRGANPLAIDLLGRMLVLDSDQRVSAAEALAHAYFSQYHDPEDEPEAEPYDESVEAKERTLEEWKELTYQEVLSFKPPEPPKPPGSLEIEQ

[2] = tested on: SGK1 (human), O00141 [S422D]
Chain of SGK1 (human), O00141 [S422D] (O00141 whole entry S422D, looked up): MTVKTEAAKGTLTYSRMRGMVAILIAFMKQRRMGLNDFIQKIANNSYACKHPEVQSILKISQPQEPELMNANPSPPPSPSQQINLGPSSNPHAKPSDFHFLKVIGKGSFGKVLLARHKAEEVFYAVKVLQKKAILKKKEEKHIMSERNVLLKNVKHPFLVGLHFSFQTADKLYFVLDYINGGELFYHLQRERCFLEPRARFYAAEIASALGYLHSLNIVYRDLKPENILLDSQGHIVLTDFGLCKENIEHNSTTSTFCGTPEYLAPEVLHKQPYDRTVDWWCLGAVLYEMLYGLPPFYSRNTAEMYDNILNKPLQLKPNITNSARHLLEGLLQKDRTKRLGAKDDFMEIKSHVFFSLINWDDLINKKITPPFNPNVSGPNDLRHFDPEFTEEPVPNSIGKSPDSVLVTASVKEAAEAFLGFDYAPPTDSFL

PLK1 (human) = PLK1 (human) (UniProt P53350)
DYRK3 (human) = DYRK3 (human) (UniProt O43781)
BRSK2 (human) = BRSK2 (human) (UniProt Q8IWQ3)
[3] = tested on: RPS6KB1 (human), P23443 [T412E]
Chain of RPS6KB1 (human), P23443 [T412E] (P23443 whole entry T412E, looked up): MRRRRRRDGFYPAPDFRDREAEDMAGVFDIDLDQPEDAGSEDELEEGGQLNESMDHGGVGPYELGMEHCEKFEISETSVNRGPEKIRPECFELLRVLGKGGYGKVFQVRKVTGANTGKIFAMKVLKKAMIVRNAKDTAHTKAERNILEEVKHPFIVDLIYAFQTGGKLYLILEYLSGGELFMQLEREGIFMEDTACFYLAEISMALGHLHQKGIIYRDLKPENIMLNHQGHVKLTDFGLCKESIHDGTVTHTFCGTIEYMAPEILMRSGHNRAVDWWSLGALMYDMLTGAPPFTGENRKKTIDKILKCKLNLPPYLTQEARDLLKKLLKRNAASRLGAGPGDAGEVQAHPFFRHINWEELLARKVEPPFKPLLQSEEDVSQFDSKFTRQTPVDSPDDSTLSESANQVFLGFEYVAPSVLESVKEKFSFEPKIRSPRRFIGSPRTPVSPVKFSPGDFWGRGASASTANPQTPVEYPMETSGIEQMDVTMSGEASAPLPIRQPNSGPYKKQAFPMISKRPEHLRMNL

IRAK4 (human) = IRAK4 (human) (UniProt Q9NWZ3)
Chain of IRAK4 (human) (Q9NWZ3 whole entry, looked up): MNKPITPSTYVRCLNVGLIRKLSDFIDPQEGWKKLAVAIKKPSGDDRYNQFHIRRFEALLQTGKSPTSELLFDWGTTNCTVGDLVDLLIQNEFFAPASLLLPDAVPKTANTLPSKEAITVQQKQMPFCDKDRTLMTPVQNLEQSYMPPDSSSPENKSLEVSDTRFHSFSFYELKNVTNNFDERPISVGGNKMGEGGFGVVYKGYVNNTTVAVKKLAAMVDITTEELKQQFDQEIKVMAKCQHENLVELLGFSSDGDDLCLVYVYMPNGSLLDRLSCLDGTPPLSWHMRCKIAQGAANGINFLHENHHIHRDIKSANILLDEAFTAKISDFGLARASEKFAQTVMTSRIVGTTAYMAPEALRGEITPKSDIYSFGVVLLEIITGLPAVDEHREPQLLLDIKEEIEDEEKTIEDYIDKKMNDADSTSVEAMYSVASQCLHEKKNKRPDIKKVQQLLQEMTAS

MAPKAPK5 (human) = MAPKAPK5 (human) (UniProt Q8IW41)
Chain of MAPKAPK5 (human) (Q8IW41 whole entry, looked up): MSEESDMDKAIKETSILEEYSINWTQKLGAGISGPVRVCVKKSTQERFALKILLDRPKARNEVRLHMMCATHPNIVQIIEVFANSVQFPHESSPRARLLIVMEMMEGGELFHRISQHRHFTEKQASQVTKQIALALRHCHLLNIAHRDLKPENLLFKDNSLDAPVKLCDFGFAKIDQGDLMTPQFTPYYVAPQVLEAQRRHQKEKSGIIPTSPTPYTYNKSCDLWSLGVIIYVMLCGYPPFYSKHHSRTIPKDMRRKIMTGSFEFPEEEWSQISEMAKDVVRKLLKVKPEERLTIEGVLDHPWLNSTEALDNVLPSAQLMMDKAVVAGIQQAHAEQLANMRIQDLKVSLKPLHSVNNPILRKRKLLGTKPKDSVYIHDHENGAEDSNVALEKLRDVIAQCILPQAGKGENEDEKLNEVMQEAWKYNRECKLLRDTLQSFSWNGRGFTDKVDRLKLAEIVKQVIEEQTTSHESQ

MAP2K6 (human) = MAP2K6 (human) (UniProt P52564)
MAPK12 (human) = MAPK12 (human) (UniProt P53778)
Chain of MAPK12 (human) (P53778 whole entry, looked up): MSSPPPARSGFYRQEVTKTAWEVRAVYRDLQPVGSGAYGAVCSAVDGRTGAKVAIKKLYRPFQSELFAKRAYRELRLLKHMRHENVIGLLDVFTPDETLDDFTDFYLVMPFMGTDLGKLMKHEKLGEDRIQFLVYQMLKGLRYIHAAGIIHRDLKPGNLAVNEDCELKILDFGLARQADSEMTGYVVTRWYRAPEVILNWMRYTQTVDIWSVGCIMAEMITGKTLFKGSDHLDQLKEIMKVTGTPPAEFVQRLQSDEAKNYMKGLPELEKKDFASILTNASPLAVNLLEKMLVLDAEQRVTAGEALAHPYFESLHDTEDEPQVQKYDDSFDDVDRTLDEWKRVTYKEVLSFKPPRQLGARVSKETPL

CLK2 (human) = CLK2 (human) (UniProt P49760)
Chain of CLK2 (human) (P49760 whole entry, looked up): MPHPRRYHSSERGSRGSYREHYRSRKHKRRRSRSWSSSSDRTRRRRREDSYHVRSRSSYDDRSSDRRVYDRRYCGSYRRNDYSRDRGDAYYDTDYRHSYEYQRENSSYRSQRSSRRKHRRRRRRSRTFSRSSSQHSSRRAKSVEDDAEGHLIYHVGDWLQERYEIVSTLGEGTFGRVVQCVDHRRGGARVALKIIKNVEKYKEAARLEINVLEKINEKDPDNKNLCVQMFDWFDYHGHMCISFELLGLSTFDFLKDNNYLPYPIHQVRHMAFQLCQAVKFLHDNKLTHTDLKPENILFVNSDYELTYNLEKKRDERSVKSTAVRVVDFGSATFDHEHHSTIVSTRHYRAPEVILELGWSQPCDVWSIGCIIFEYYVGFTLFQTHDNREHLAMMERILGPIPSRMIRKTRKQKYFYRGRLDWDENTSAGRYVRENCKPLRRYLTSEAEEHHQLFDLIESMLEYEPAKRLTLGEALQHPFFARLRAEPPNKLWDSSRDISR

MAPK8 (human) = MAPK8 (human) (UniProt P45983)
PIM3 (human) = PIM3 (human) (UniProt Q86V86)
IKBKB (human) = IKBKB (human) (UniProt O14920)
MAP3K11 (human) = MAP3K11 (human) (UniProt Q16584)
Chain of MAP3K11 (human) (Q16584 whole entry, looked up): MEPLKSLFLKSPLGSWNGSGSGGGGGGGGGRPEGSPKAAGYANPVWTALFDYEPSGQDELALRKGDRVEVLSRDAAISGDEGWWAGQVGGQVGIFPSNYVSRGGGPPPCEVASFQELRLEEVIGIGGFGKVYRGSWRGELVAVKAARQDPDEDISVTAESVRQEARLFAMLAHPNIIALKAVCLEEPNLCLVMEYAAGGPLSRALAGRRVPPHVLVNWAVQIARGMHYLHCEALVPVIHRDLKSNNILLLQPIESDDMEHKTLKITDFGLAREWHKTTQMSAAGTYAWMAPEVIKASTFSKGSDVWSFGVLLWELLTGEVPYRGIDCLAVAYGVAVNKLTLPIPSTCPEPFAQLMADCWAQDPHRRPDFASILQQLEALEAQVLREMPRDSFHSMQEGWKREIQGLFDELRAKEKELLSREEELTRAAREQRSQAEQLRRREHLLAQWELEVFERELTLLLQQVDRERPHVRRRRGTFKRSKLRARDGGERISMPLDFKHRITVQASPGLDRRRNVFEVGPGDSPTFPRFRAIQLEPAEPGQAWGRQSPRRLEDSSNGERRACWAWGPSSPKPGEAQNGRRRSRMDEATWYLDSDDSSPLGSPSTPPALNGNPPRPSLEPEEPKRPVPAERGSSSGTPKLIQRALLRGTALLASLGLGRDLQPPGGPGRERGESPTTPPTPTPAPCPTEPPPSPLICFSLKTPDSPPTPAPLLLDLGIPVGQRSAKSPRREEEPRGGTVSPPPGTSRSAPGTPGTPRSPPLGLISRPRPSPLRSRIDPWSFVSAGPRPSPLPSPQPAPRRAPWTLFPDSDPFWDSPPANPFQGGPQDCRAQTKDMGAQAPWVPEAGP

MAPK14 (human) = MAPK14 (human) (UniProt Q16539)
ROCK2 (rat) = details: accession and sequence are those of the human protein
RPS6KA1 KD1 KD2 (human) = RPS6KA1 KD1 KD2 (human) (UniProt Q15418)

SMILES: COc1ccc(-n2ncc3cnc(Nc4cc(OC)c(OC)c(OCCCN5CCN(C)CC5)c4)nc32)cc1
- residual activity (MAP3K7 TAB1 (human); compound 0.1 µM): 14%
- residual activity (MAP3K7 TAB1 (human); compound 1.0 µM): 19%
- residual activity (PIM1 (human); compound 0.1 µM): 96%
- residual activity (PIM1 (human); compound 1.0 µM): 62%
- residual activity (DYRK1A (human); compound 0.1 µM): 57%
- residual activity (DYRK1A (human); compound 1.0 µM): 12%
- residual activity (STK3 (human); compound 0.1 µM): 78%
- residual activity (MAPK3 (human); compound 0.1 µM): 111%
- residual activity (MAPK3 (human); compound 1.0 µM): 82%
- residual activity (IKBKE (human); compound 0.1 µM): 28%
- residual activity (IKBKE (human); compound 1.0 µM): 18%
- residual activity (MKNK2 (human); compound 0.1 µM): 67%
- residual activity (MKNK2 (human); compound 1.0 µM): 17%
- residual activity ([1]; compound 0.1 µM): 99%
- residual activity ([1]; compound 1.0 µM): 89%
- residual activity (PIM2 (human); compound 0.1 µM): 108%
- residual activity (PIM2 (human); compound 1.0 µM): 106%
- residual activity (RPS6KA3 KD1 KD2 (human); compound 0.1 µM): 38%
- residual activity (RPS6KA3 KD1 KD2 (human); compound 1.0 µM): 9%
- residual activity (PAK4 (human); compound 0.1 µM): 29%
- residual activity (PAK4 (human); compound 1.0 µM): 9%
- residual activity (TBK1 (human); compound 0.1 µM): 14%
- residual activity (TBK1 (human); compound 1.0 µM): 8%
- residual activity (NTRK1 (human); compound 0.1 µM): 32%
- residual activity (NTRK1 (human); compound 1.0 µM): 11%
- residual activity (CSNK2A1 (human); compound 0.1 µM): 33%
- residual activity (CSNK2A1 (human); compound 1.0 µM): 6%
- residual activity (MAPKAPK3 (human); compound 0.1 µM): 97%
- residual activity (MAPKAPK3 (human); compound 1.0 µM): 81%
- residual activity (EPHB3 (human); compound 0.1 µM): 86%
- residual activity (EPHB3 (human); compound 1.0 µM): 16%
- residual activity (DAPK1 (human); compound 0.1 µM): 51%
- residual activity (DAPK1 (human); compound 1.0 µM): 15%
- residual activity (MAPK11 (human); compound 0.1 µM): 103%
- residual activity (MAPK11 (human); compound 1.0 µM): 95%
- residual activity ([2]; compound 0.1 µM): 107%
- residual activity ([2]; compound 1.0 µM): 61%
- residual activity (PLK1 (human); compound 0.1 µM): 90%
- residual activity (PLK1 (human); compound 1.0 µM): 91%
- residual activity (DYRK3 (human); compound 1.0 µM): 10%
- residual activity (BRSK2 (human); compound 0.1 µM): 84%
- residual activity (BRSK2 (human); compound 1.0 µM): 35%
- residual activity ([3]; compound 0.1 µM): 70%
- residual activity ([3]; compound 1.0 µM): 28%
- residual activity (IRAK4 (human); compound 0.1 µM): 64%
- residual activity (IRAK4 (human); compound 1.0 µM): 20%
- residual activity (MAPKAPK5 (human); compound 0.1 µM): 98%
- residual activity (MAPKAPK5 (human); compound 1.0 µM): 85%
- residual activity (MAP2K6 (human); compound 0.1 µM): 99%
- residual activity (MAP2K6 (human); compound 1.0 µM): 75%
- residual activity (MAPK12 (human); compound 0.1 µM): 113%
- residual activity (MAPK12 (human); compound 1.0 µM): 95%
- residual activity (CLK2 (human); compound 0.1 µM): 30%
- residual activity (CLK2 (human); compound 1.0 µM): 11%
- residual activity (MAPK8 (human); compound 0.1 µM): 89%
- residual activity (MAPK8 (human); compound 1.0 µM): 38%
- residual activity (PIM3 (human); compound 0.1 µM): 91%
- residual activity (PIM3 (human); compound 1.0 µM): 63%
- residual activity (IKBKB (human); compound 0.1 µM): 86%
- residual activity (IKBKB (human); compound 1.0 µM): 55%
- residual activity (MAP3K11 (human); compound 0.1 µM): 15%
- residual activity (MAP3K11 (human); compound 1.0 µM): 8%
- residual activity (MAPK14 (human); compound 0.1 µM): 98%
- residual activity (MAPK14 (human); compound 1.0 µM): 85%
- residual activity (ROCK2 (rat); compound 0.1 µM): 49%
- residual activity (ROCK2 (rat); compound 1.0 µM): 25%
- residual activity (RPS6KA1 KD1 KD2 (human); compound 1.0 µM): 7%

SMILES: Cc1nc(-c2ccc(OCC(C)C)c(C#N)c2)sc1C(=O)O
- residual activity (MAP3K7 TAB1 (human); compound 1.0 µM): 88%
- residual activity (MAP3K7 TAB1 (human); compound 10.0 µM): 81%
- residual activity (PIM1 (human); compound 1.0 µM): 83%
- residual activity (PIM1 (human); compound 10.0 µM): 66%
- residual activity (DYRK1A (human); compound 1.0 µM): 102%
- residual activity (DYRK1A (human); compound 10.0 µM): 85%
- residual activity (STK3 (human); compound 1.0 µM): 73%
- residual activity (STK3 (human); compound 10.0 µM): 75%
- residual activity (MAPK3 (human); compound 10.0 µM): 95%
- residual activity (IKBKE (human); compound 1.0 µM): 138%
- residual activity (IKBKE (human); compound 10.0 µM): 100%
- residual activity (MKNK2 (human); compound 1.0 µM): 105%
- residual activity (MKNK2 (human); compound 10.0 µM): 91%
- residual activity ([1]; compound 1.0 µM): 97%
- residual activity ([1]; compound 10.0 µM): 95%
- residual activity (PIM2 (human); compound 1.0 µM): 110%
- residual activity (PIM2 (human); compound 10.0 µM): 88%
- residual activity (RPS6KA3 KD1 KD2 (human); compound 1.0 µM): 99%
- residual activity (RPS6KA3 KD1 KD2 (human); compound 10.0 µM): 92%
- residual activity (PAK4 (human); compound 1.0 µM): 85%
- residual activity (PAK4 (human); compound 10.0 µM): 67%
- residual activity (TBK1 (human); compound 1.0 µM): 127%
- residual activity (NTRK1 (human); compound 1.0 µM): 88%
- residual activity (CSNK2A1 (human); compound 1.0 µM): 87%
- residual activity (CSNK2A1 (human); compound 10.0 µM): 71%
- residual activity (MAPKAPK3 (human); compound 1.0 µM): 102%
- residual activity (MAPKAPK3 (human); compound 10.0 µM): 95%
- residual activity (EPHB3 (human); compound 10.0 µM): 83%
- residual activity (DAPK1 (human); compound 1.0 µM): 85%
- residual activity (DAPK1 (human); compound 10.0 µM): 60%
- residual activity (MAPK11 (human); compound 1.0 µM): 84%
- residual activity (MAPK11 (human); compound 10.0 µM): 91%
- residual activity ([2]; compound 1.0 µM): 99%
- residual activity ([2]; compound 10.0 µM): 98%
- residual activity (PLK1 (human); compound 1.0 µM): 94%
- residual activity (PLK1 (human); compound 10.0 µM): 91%
- residual activity (DYRK3 (human); compound 1.0 µM): 84%
- residual activity (DYRK3 (human); compound 10.0 µM): 65%
- residual activity (BRSK2 (human); compound 1.0 µM): 100%
- residual activity (BRSK2 (human); compound 10.0 µM): 86%
- residual activity ([3]; compound 1.0 µM): 99%
- residual activity ([3]; compound 10.0 µM): 99%
- residual activity (IRAK4 (human); compound 1.0 µM): 90%
- residual activity (IRAK4 (human); compound 10.0 µM): 98%
- residual activity (MAPKAPK5 (human); compound 1.0 µM): 87%
- residual activity (MAPKAPK5 (human); compound 10.0 µM): 82%
- residual activity (MAP2K6 (human); compound 1.0 µM): 85%
- residual activity (MAP2K6 (human); compound 10.0 µM): 81%
- residual activity (MAPK12 (human); compound 1.0 µM): 84%
- residual activity (MAPK12 (human); compound 10.0 µM): 96%
- residual activity (CLK2 (human); compound 1.0 µM): 81%
- residual activity (CLK2 (human); compound 10.0 µM): 77%
- residual activity (MAPK8 (human); compound 1.0 µM): 95%
- residual activity (MAPK8 (human); compound 10.0 µM): 103%
- residual activity (PIM3 (human); compound 1.0 µM): 66%
- residual activity (PIM3 (human); compound 10.0 µM): 19%
- residual activity (IKBKB (human); compound 1.0 µM): 100%
- residual activity (IKBKB (human); compound 10.0 µM): 99%
- residual activity (MAP3K11 (human); compound 1.0 µM): 80%
- residual activity (MAP3K11 (human); compound 10.0 µM): 47%
- residual activity (MAPK14 (human); compound 1.0 µM): 105%
- residual activity (ROCK2 (rat); compound 1.0 µM): 96%
- residual activity (ROCK2 (rat); compound 10.0 µM): 80%
- residual activity (RPS6KA1 KD1 KD2 (human); compound 1.0 µM): 92%
- residual activity (RPS6KA1 KD1 KD2 (human); compound 10.0 µM): 84%
